Columns and labels:
Assay in all cases: Bliss interaction score (quartile over a dose matrix) (fitness difference); higher = more antagonism (negative = synergy)
B. subtilis 168 = system: B. subtilis 168
Procedure, shortened: (§1)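 The Bliss score is observed minus expected fitness under the product model, reported as quartiles over technical, biological and donor/recipient replicates. Fitness is the OD595 at entry into stationary phase divided by the plate's robust no-drug mean and capped at 1. Single-drug fitness was inferred from combination data.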

S. aureus DSM 20231 = system: S. aureus DSM 20231
Procedure, shortened: as §1

S. aureus Newman = system: S. aureus Newman
Procedure, shortened: as §1

S. pneumoniae D39V = system: S. pneumoniae D39V
Procedure, shortened: as §1
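Further: first quartile when negative (synergy) and third quartile when positive (antagonism).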

Row | Compound | Bliss interaction score (B. subtilis 168) | Bliss interaction score (S. aureus DSM 20231) | Bliss interaction score (S. aureus Newman) | Bliss interaction score (S. pneumoniae D39V)
1 | N#CC(C#N)=NNc1cccc(Cl)c1 [CCCP] + CC[C@H]1OC(=O)[C@H](C)[C@@H](O[C@H]2C[C@@](C)(OC)[C@@H](O)[C@H](C)O2)[C@H](C)[C@@H](O[C@@H]2O[C@H](C)C[C@H](N(C)C)[C@H]2O)[C@](C)(O)C[C@@H](C)C(=O)[C@H](C)[C@@H](O)[C@]1(C)O [Erythromycin] | -0.0587 | 0.023 | 0.0472 | -0.0863
2 | N#CC(C#N)=NNc1cccc(Cl)c1 [CCCP] + Cc1cc(NS(=O)(=O)c2ccc(N)cc2)no1 [Sulfamethoxazol] | -0.0348 | -0.0343 | -0.0463 | 0.0794
3 | CO/N=C(\C(=O)N[C@@H]1C(=O)N2C(C(=O)O)=C(COC(N)=O)CS[C@H]12)c1ccco1 [Cefuroxime] + O=C1CN(/N=C/c2ccc([N+](=O)[O-])o2)C(=O)N1 [Nitrofurantoin] | -0.104 | 0.0612 | -0.0317 | 0.0749
4 | COc1cccc2c1C(=O)c1c(O)c3c(c(O)c1C2=O)C[C@@](O)(C(=O)CO)C[C@@H]3O[C@H]1C[C@H](N)[C@H](O)[C@H](C)O1 [Doxorubicin] + CC(=O)O[C@H]1C[C@@]2(C)[C@@H](C[C@@H](O)[C@H]3[C@@]4(C)CC[C@@H](O)[C@@H](C)[C@@H]4CC[C@@]32C)/C1=C(\CCC=C(C)C)C(=O)O [Fusidic acid] | 0.0613 | -0.0285 | 0.0367 | -0.0805
5 | C[C@H]1c2cccc(O)c2C(=O)C2=C(O)[C@]3(O)C(=O)C(C(N)=O)=C(O)[C@@H](N(C)C)[C@@H]3[C@@H](O)[C@@H]21 [Doxycycline] + CC1(C)S[C@@H]2[C@H](NC(=O)Cc3ccccc3)C(=O)N2[C@H]1C(=O)O [PenicillinG] | 0.108 | 0.0444 | -0.027 | 0.106
6 | N#CC(C#N)=NNc1cccc(Cl)c1 [CCCP] + O=C1CN(/N=C/c2ccc([N+](=O)[O-])o2)C(=O)N1 [Nitrofurantoin] | -0.0566 | -0.0278 | -0.0479 | -0.109
7 | CN(C)[C@@H]1C(O)=C(C(N)=O)C(=O)[C@@]2(O)C(O)=C3C(=O)c4c(O)ccc(Cl)c4[C@@](C)(O)[C@H]3C[C@@H]12 [Clortetracycline] + C[n+]1ccc(-c2cc[n+](C)cc2)cc1 [Paraquat] | 0.0974 | 0.0363 | -0.0418 | -0.026
8 | C[C@@H]1O[C@@H]1P(=O)(O)O [Fosfomycin] + CC(=O)O[C@H]1C[C@@]2(C)[C@@H](C[C@@H](O)[C@H]3[C@@]4(C)CC[C@@H](O)[C@@H](C)[C@@H]4CC[C@@]32C)/C1=C(\CCC=C(C)C)C(=O)O [Fusidic acid] | 0.0895 | 0.0457 | -0.0179 | 0.0774
9 | CN(C)[C@@H]1C(O)=C(C(N)=O)C(=O)[C@@]2(O)C(O)=C3C(=O)c4c(O)ccc(Cl)c4[C@@](C)(O)[C@H]3C[C@@H]12 [Clortetracycline] + CN[C@@H]1[C@H](O[C@H]2[C@H](O[C@H]3[C@H](O)[C@@H](O)[C@H](N=C(N)N)[C@@H](O)[C@@H]3N=C(N)N)O[C@@H](C)[C@]2(O)C=O)O[C@@H](CO)[C@H](O)[C@H]1O [Streptomycin] | 0.156 | -0.0487 | -0.0515 | -0.0408
10 | CC(=O)Oc1ccccc1C(=O)O [Acetylsalicylicacid] + CN[C@H](CC(C)C)C(=O)N[C@H]1C(=O)N[C@@H](CC(N)=O)C(=O)N[C@H]2C(=O)N[C@H]3C(=O)N[C@H](C(=O)N[C@H](C(=O)O)c4cc(O)cc(O)c4-c4cc3ccc4O)[C@H](O[C@H]3C[C@](C)(N)[C@@H](O)[C@H](C)O3)c3ccc(c(Cl)c3)Oc3cc2cc(c3O[C@@H]2O[C@H](CO)[C@@H](O)[C@H](O)[C@H]2O[C@H]2C[C@](C)(NCc3ccc(-c4ccc(Cl)cc4)cc3)[C@@H](O)[C@H](C)O2)Oc2ccc(cc2Cl)[C@H]1O [Oritavancin] | -0.0215 | 0.0533 | 0.086 | 0.071
11 | O=C(O)c1cn(C2CC2)c2cc(N3CCNCC3)c(F)cc2c1=O [Ciprofloxacin] + CC1(C)S[C@@H]2[C@H](NC(=O)Cc3ccccc3)C(=O)N2[C@H]1C(=O)O [PenicillinG] | 0.0481 | -0.0624 | -0.0565 | 0.0662
12 | CO/N=C(\C(=O)N[C@@H]1C(=O)N2C(C(=O)O)=C(COC(N)=O)CS[C@H]12)c1ccco1 [Cefuroxime] + CO[C@H]1/C=C/O[C@@]2(C)Oc3c(C)c(O)c4c(O)c(c(/C=N/N5CCN(C)CC5)c(O)c4c3C2=O)NC(=O)/C(C)=C\C=C\[C@H](C)[C@H](O)[C@@H](C)[C@@H](O)[C@@H](C)[C@H](OC(C)=O)[C@@H]1C [Rifampicin] | 0.0741 | 0.109 | 0.0557 | 0.102
13 | CO/N=C(\C(=O)N[C@@H]1C(=O)N2C(C(=O)O)=C(COC(C)=O)CS[C@H]12)c1csc(N)n1 [Cefotaxime] + O=C(O)c1cn(C2CC2)c2cc(N3CCNCC3)c(F)cc2c1=O [Ciprofloxacin] | -0.144 | -0.0413 | 0.0294 | 0.154
14 | CC(=O)Oc1ccccc1C(=O)O [Acetylsalicylicacid] + CCC[C@@H]1C[C@@H](C(=O)N[C@@H]([C@H]2O[C@H](SC)[C@H](O)[C@@H](O)[C@H]2O)[C@@H](C)O)N(C)C1 [Lincomycin] | -0.0832 | 0.199 | 0.0556 | 0.0801
15 | Cc1ncc([N+](=O)[O-])n1CCO [Metronidazole] + CN[C@H](CC(C)C)C(=O)N[C@H]1C(=O)N[C@@H](CC(N)=O)C(=O)N[C@H]2C(=O)N[C@H]3C(=O)N[C@H](C(=O)N[C@H](C(=O)O)c4cc(O)cc(O)c4-c4cc3ccc4O)[C@H](O[C@H]3C[C@](C)(N)[C@@H](O)[C@H](C)O3)c3ccc(c(Cl)c3)Oc3cc2cc(c3O[C@@H]2O[C@H](CO)[C@@H](O)[C@H](O)[C@H]2O[C@H]2C[C@](C)(NCc3ccc(-c4ccc(Cl)cc4)cc3)[C@@H](O)[C@H](C)O2)Oc2ccc(cc2Cl)[C@H]1O [Oritavancin] | -0.0222 | 0.0377 | 0.0752 | -0.0396
16 | CC1(C)S[C@@H]2[C@H](NC(=O)Cc3ccccc3)C(=O)N2[C@H]1C(=O)O [PenicillinG] + Cc1cc(NS(=O)(=O)c2ccc(N)cc2)no1 [Sulfamethoxazol] | 0.0445 | -0.0626 | 0.0475 | -0.0954
17 | N#CC(C#N)=NNc1cccc(Cl)c1 [CCCP] + CCN(CC)CCOC(=O)c1ccc(N)cc1 [Procaine] | 0.0328 | -0.0522 | -0.0249 | 0.0668
18 | CC(=O)Oc1ccccc1C(=O)O [Acetylsalicylicacid] + O=C(O)c1cn(C2CC2)c2cc(N3CCNCC3)c(F)cc2c1=O [Ciprofloxacin] | 0.146 | 0.142 | 0.158 | 0.144
19 | CC1(C)S[C@@H]2[C@H](NC(=O)Cc3ccccc3)C(=O)N2[C@H]1C(=O)O [PenicillinG] + CN[C@H](CC(C)C)C(=O)N[C@H]1C(=O)N[C@@H](CC(N)=O)C(=O)N[C@H]2C(=O)N[C@H]3C(=O)N[C@H](C(=O)N[C@H](C(=O)O)c4cc(O)cc(O)c4-c4cc3ccc4O)[C@H](O)c3ccc(c(Cl)c3)Oc3cc2cc(c3O[C@@H]2O[C@H](CO)[C@@H](O)[C@H](O)[C@H]2O[C@H]2C[C@](C)(N)[C@H](O)[C@H](C)O2)Oc2ccc(cc2Cl)[C@H]1O [Vancomycin] | -0.039 | -0.0205 | 0.0603 | -0.162
20 | CN(C)[C@@H]1C(O)=C(C(N)=O)C(=O)[C@@]2(O)C(O)=C3C(=O)c4c(O)ccc(Cl)c4[C@@](C)(O)[C@H]3C[C@@H]12 [Clortetracycline] + COc1ccc(C[C@H](N)C(=O)N[C@H]2[C@@H](O)[C@H](n3cnc4c(N(C)C)ncnc43)O[C@@H]2CO)cc1 [Puromycin] | -0.0605 | -0.0681 | -0.0798 | -0.0852
21 | CO/N=C(\C(=O)N[C@@H]1C(=O)N2C(C(=O)O)=C(COC(C)=O)CS[C@H]12)c1csc(N)n1 [Cefotaxime] + CCC[C@@H]1C[C@@H](C(=O)N[C@@H]([C@H]2O[C@H](SC)[C@H](O)[C@@H](O)[C@H]2O)[C@H](C)Cl)N(C)C1 [Clindamycin] | 0.0327 | 0.0463 | -0.0656 | 0.113
22 | N#CC(C#N)=NNc1cccc(Cl)c1 [CCCP] + C[C@@H](O)[C@H]1C(=O)N2C(C(=O)O)=C(SCCNC=N)C[C@H]12 [Imipenem] | -0.0769 | 0.0449 | 0.0181 | 0.0923
23 | N#CC(C#N)=NNc1cccc(Cl)c1 [CCCP] + Clc1ccc(COC(Cn2ccnc2)c2ccc(Cl)cc2Cl)c(Cl)c1 [Miconazole] | 0.0582 | -0.0382 | -0.0554 | -0.0431
24 | CC(=O)Oc1ccccc1C(=O)O [Acetylsalicylicacid] + Cc1ncc([N+](=O)[O-])n1CCO [Metronidazole] | 0.203 | 0.0605 | -0.0652 | 0.056
